± gives the expanded uncertainty stated by the source.

For the data set the following is noted: 298.15 K; 101.33 kPa; Liquid; Vibrating tube method.
Turning to `COCCOCCOCCOC` [2,5,8,11-tetraoxadodecane], the mass density is reported as 980.42 ± 0.23 kg/m3.

For the compound `CCO` [ethanol], the mass density is 785.04 ± 0.13 kg/m3.

On to `COCCOCCOCCOCCOC` [2,5,8,11,14-pentaoxapentadecane], for which the mass density is reported as 1006.2 ± 0.24 kg/m3.

With `CCCCCCCCCCCCCCCC` [hexadecane], the mass density stood at 770.01 ± 0.24 kg/m3.
